Experimental data from patent publication US20230416791A1, “METHOD TO PRODUCE BRANCHED-CHAIN POLYHYDROXYALKANOATES AND BRANCHED-CHAIN 3-HYDROXYACIDS FROM GLUCOSE” (Alliance for Sustainable Energy, LLC, priority 2022, published 2023).

What was measured:
[1] = test system: ΔmadB ΔfabH1 P. putida; experiment: Growth curves with straight-chain fatty acid supplementation (microplate reader); format: cell-based, Pseudomonas putida KT2440; settings: fatty acid sodium salt at 100 μg/mL, modified M9 with glucose, 30° C.
Description: (§1) Microplate reader experiments. Microplate reader experiments were performed by inoculating seed cultures from glycerol stocks into 10 mL of LB Broth (Miller; Sigma-Aldrich) with appropriate antibiotics in a 125 mL flask and incubating overnight at 30° C. (P. putida) or 37° C. (E. coli) and 225 rpm. Overnight cultures were then used to inoculate a second seed culture into 10 mL of LB Broth (Miller; Sigma-Aldrich) with appropriate antibiotics in a 125 mL flask starting at an optical density of 0.2 measured at 600 nm (0D600) using a GENESYS™ 140 Visible Light Spectrophotometer (Thermo Scientific). The second seed cultures were incubated at 30° C. (P. putida) or 37° C. (E. coli) at 225 rpm for 2-4 hrs until an OD600 of approximately 2 was reached. The second seed cultures were centrifuged at 8,000 rpm for 3 min, the pellets were washed with 1× M9, minimal salts (Sigma-Aldrich) three times, and resuspended to an OD600=3.0. Cells (10 μL) were transferred to five replicate wells in a 100-well Honeycomb 2 plate (Growth Curves USA) containing 290 μL of growth medium, corresponding to initial OD600=0.1. E. coli strains were grown in LB Broth (Miller; Sigma-Aldrich) at 37° C. and supplemented with 50 μg/mL kanamycin and 0.1 mM isopropylthio-β-galactoside (IPTG; GoldBio) when appropriate. P. putida strains were grown in modified M9 minimal media containing 6.78 g/L Na2HPO4, 3 g/L KH2PO4, 1 g/L NH4C1, 0.5 g/L NaCl, 2 mM MgSO4, 100 μM CaCl2, and 2 g/L glucose at 30° C. For fatty acid supplementation experiments, sodium salts of a given fatty acid (Sigma-Aldrich) were added to a final concentration of 100 μg/mL. OD600 measurements were acquired every 15 min with a Bioscreen C Pro (Growth Curves USA) and plate was shaken continuously. Maximum specific growth rates were calculated using a spline model (https://github.com/scott-saunders/growth_curve_fitting).

[2] = test system: P. putida KT2440 ΔmadB ΔfabH1; experiment: Growth of P. putida ΔmadB ΔfabH1 supplemented with straight-chain fatty acids; format: cell-based, Pseudomonas putida KT2440; settings: 100 μg/mL, modified M9 minimal medium, 30° C.
Description: as §1

[3] = test system: MadB; experiment: Transformation of non-EcAcpP substrate by MadB (HPLC / LC-MS detection); format: biochemical, Pseudomonas putida KT2440; settings: 1 mM substrate, 5 μM MadB, HEPES pH 7.5, room temperature
Description: Transformation of non-EcAcpP substrate by MadB. […] The reaction contained 1 mM of the alternate substrate and 5 μM of MadB in HEPES (I=0.1 M) pH 7.5 supplemented with 10 mM MgCl2 and 1 mM TCEP. The reaction was incubated at room temperature with an intermittent agitation for −1 hour prior to being passed through a 0.2 μm filter and frozen until further analysis.
Detection of various CoA analytes in the samples were performed on an Agilent 1200 HPLC system (Agilent Technologies) equipped with an Agilent 6120 mass spectrometer detector (MS). Each sample and standard were injected at a volume of 2 μL on a Phenomenex Luna C18(2)-HST column 100A′, […], 2.0×100 mm column (Phenomenex). The column temperature was maintained at 45° C. and the buffers used to separate the analytes of interest was 0.1% formic acid in water (A)/0.1% formic acid in acetonitrile (B). A gradient program was used to separate the analytes of interest: (A)=100% and (B)=0% at time t=0; (A)=100% and (B)=0% at t=1 min; (A)=50% and (B)=50% at t=7.65 min; (A)=30% and (B)=70% at t=9.33 min; (A)=30% and (B)=70% at t=10.67 min; (A)=100% and (B)=0% at t=10.68 min; (A)=100% and (B)=0% at t=13 min. The flow rate was held constant at 0.50 mL/min resulting in a run time of 13 minutes. The MS system was setup in positive electrospray ionization mode with a gas temperature of 350° C., drying gas at 12 L/min, nebulizer pressure set to 35 psig, and a Vcap voltage of 3000v. A total of four different masses in SIM mode from the MS detector were used to determine the presence and or absence of each analyte of interest. […] One standard from each analyte was used to determine the elution order and retention times of the compounds.
Detection of malonic and acetic acid was performed on an Agilent 1290 HPLC system (Agilent Technologies) equipped with an Agilent G7117A diode array detector (DAD). NREL's laboratory analytical procedure “Determination of Structural Carbohydrates and Lignin in Biomass” (Sluiter et al., 2012) HPLC method was used to detect the analytes of interest as outlined below. […]

[4] = target: T1, Pseudomonas putida KT2440 MadB (PP_0262) variant Asn45Ala (N45A) (Pseudomonas putida, UniProt Q88R72, N45A); experiment: ITC steady-state kinetics of malonyl-CoA decarboxylation
T1 sequence (Q88R72 1-151 N45A): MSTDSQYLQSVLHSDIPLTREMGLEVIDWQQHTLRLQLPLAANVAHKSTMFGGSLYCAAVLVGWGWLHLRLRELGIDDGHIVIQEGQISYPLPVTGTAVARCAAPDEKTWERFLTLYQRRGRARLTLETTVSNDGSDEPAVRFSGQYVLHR
Excerpt: (§2) Kinetic determination using ITC.
(§3) Both variants were purified similarly to the wild-type MadB.

[5] = target: T2, Pseudomonas putida KT2440 MadB (PP_0262) variant His46Ala (H46A) (Pseudomonas putida, UniProt Q88R72, H46A); experiment: as above
T2 sequence (Q88R72 1-151 H46A): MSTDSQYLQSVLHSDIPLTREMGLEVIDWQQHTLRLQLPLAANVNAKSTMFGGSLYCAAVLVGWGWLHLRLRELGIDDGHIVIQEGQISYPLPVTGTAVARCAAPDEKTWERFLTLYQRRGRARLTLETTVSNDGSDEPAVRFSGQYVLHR
Excerpt: as §2, §3

[6] = target: T3, Pseudomonas putida KT2440 MadB (PP_0262, malonyl-ACP decarboxylase), wild type (Pseudomonas putida, UniProt Q88R72); settings: malonyl-CoA decarboxylation, ITC, 30° C., pH 7.5
T3 sequence (Q88R72 1-151): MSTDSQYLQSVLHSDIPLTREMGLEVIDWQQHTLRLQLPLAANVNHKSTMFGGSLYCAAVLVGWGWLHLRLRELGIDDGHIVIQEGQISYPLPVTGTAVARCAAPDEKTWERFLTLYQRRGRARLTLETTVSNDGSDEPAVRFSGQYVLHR

[7] = substrate: CC(C)(COP(=O)(O)OP(=O)(O)OC[C@H]1O[C@@H](n2cnc3c(N)ncnc32)[C@H](O)[C@@H]1OP(=O)(O)O)[C@@H](O)C(=O)NCCC(=O)NCCSC(=O)CC(=O)O; experiment: purified protein, by the assay type; settings: other: malonyl-CoA decarboxylation, ITC, 30° C., pH 7.5
[8] = malonyl-CoA, Asn45Ala vs wild-type
[9] = malonyl-CoA, His46Ala vs wild-type

**Q.** What does the source list for `CC(=O)O` [C2]?
**A.** effect on growth of ΔmadB ΔfabH1 [1]: had no effect on growth; effect of fatty acid supplementation on growth [2]: no effect on growth

**Q.** What does the source list for `CCCC(=O)O` [C4]?
**A.** effect on growth of ΔmadB ΔfabH1 [1]: inhibited; effect of fatty acid supplementation on growth [2]: inhibited

**Q.** What does the source list for `CCCCCC(=O)O` [C6]?
**A.** effect on growth of ΔmadB ΔfabH1 [1]: appeared to improve growth, albeit less significantly; effect of fatty acid supplementation on growth [2]: improve growth, albeit less significantly

**Q.** What does the source list for `CCCCCCCC(=O)O` [C8]?
**A.** effect on growth of ΔmadB ΔfabH1 [1]: dramatic improvement of growth; effect of fatty acid supplementation on growth [2]: dramatic improvement of growth

**Q.** `CCCCCCCCCC(=O)O` [C10] was tested. Which “effect on growth of ΔmadB ΔfabH1” value [1] did it give?
**A.** dramatic improvement of growth

**Q.** And the “effect of fatty acid supplementation on growth” value [2]?
**A.** dramatic improvement of growth

**Q.** With `O=C(O)CC(=O)O` [malonate] as the molecule, how does the “decarboxylation by MadB” value [3] read?
**A.** not

**Q.** With `CC(C)(COP(=O)(O)OP(=O)(O)OC[C@H]1O[C@@H](n2cnc3c(N)ncnc32)[C@H](O)[C@@H]1OP(=O)(O)O)[C@@H](O)C(=O)NCCC(=O)NCCSC(=O)CC(=O)O` [malonyl-CoA] as the molecule, how does the “decarboxylation by MadB” value [3] read?
**A.** capable of decarboxylating

**Q.** And the Kcat ([4]; malonyl-CoA decarboxylation, Asn45Ala, ITC, 30° C., pH 7.5)?
**A.** 0.06 ± 0.01 s⁻¹

**Q.** What about the “Michaelis constant relative to wild-type” value [4, 8] of the same molecule?
**A.** about half

**Q.** What about the “lower catalytic efficiency compared to the wild-type enzyme” value [4, 8] of the same molecule?
**A.** 13 fold

**Q.** And the Kcat ([5]; malonyl-CoA decarboxylation, His46Ala, ITC, 30° C., pH 7.5)?
**A.** 0.45 ± 0.01 s⁻¹

**Q.** And the “Michaelis constant relative to wild-type” value [5, 9]?
**A.** about half

**Q.** What about the “lower catalytic efficiency compared to the wild-type enzyme” value [5, 9] of the same molecule?
**A.** 1.5 fold

**Q.** And the Kcat [6]?
**A.** 1.4 ± 0.1 s⁻¹

**Q.** For `CC(C(=O)O)C(=O)SCCNC(=O)CCNC(=O)[C@H](O)C(C)(C)COP(=O)(O)OP(=O)(O)OC[C@H]1O[C@@H](n2cnc3c(N)ncnc32)[C@H](O)[C@@H]1OP(=O)(O)O` (stereo partly shown) [methylmalonyl-CoA], which “decarboxylation by MadB” value [3] is on record?
**A.** capable of decarboxylating

B1: Pseudomonas putida KT2440 MadB (PP_0262, malonyl-ACP decarboxylase), wild type (Pseudomonas putida KT2440) (protein)
chain: MSTDSQYLQSVLHSDIPLTREMGLEVIDWQQHTLRLQLPLAANVNHKSTMFGGSLYCAAVLVGWGWLHLRLRELGIDDGHIVIQEGQISYPLPVTGTAVARCAAPDEKTWERFLTLYQRRGRARLTLETTVSNDGSDEPAVRFSGQYVLHR
**Q.** For B1, which Km ([7]; wild-type MadB) is on record?
**A.** 12 ± 1 mM

**Q.** What about the kcat ([7]; wild-type MadB) of the same molecule?
**A.** 1.4 s⁻¹

**Q.** And the kcat/Km ([7]; wild-type MadB)?
**A.** 120 M⁻¹ s⁻¹

B2: Pseudomonas putida KT2440 MadB (PP_0262) variant His46Ala (H46A) (Pseudomonas putida KT2440; H46A) (protein)
chain: MSTDSQYLQSVLHSDIPLTREMGLEVIDWQQHTLRLQLPLAANVNAKSTMFGGSLYCAAVLVGWGWLHLRLRELGIDDGHIVIQEGQISYPLPVTGTAVARCAAPDEKTWERFLTLYQRRGRARLTLETTVSNDGSDEPAVRFSGQYVLHR
**Q.** For B2, which Km ([7]; His46Ala) is on record?
**A.** 5.7 ± 0.2 mM

B3: Pseudomonas putida KT2440 MadB (PP_0262) variant Asn45Ala (N45A) (Pseudomonas putida KT2440; N45A) (protein)
chain: MSTDSQYLQSVLHSDIPLTREMGLEVIDWQQHTLRLQLPLAANVAHKSTMFGGSLYCAAVLVGWGWLHLRLRELGIDDGHIVIQEGQISYPLPVTGTAVARCAAPDEKTWERFLTLYQRRGRARLTLETTVSNDGSDEPAVRFSGQYVLHR
**Q.** With B3 as the molecule, how does the Km ([7]; Asn45Ala) read?
**A.** 6.9 ± 0.5 mM
